The values that follow come from patent publication US20170008928A1, “NOVEL PEPTIDES AND PEPTIDE DERIVATIVES AND USES THEREOF” (Novo Nordisk A/S, priority 2015, published 2017).

Like-named read-outs stand apart in the source and are kept apart here. Starred links: 1 amine or outer side, 2 acyl side, 3 side chain; linkers in the order of their positions; H or OH if unused. Non-standard residues stand in square brackets, D forms with d. Residues, ends and D or L forms follow the SMILES beside them. *: point of attachment. Phe(4-CH2SO3H) = N[C@@H](Cc1ccc(CS(=O)(=O)O)cc1)C(=O)O; sY = N[C@@H](Cc1ccc(OS(=O)(=O)O)cc1)C(=O)O; C18 diacid = O=C(O)CCCCCCCCCCCCCCCCC(=O)*; γGlu = O=C(O)[C@H](CCC(=O)[*:2])N[*:1]; Met(O2) = CS(=O)(=O)CC[C@H](N)C(=O)O; NMeF = CN[C@@H](Cc1ccccc1)C(=O)O; dNMeD = CN[C@H](CC(=O)O)C(=O)O; Nle = CCCC[C@H](N)C(=O)O; AEEA = NCCOCCOCC(=O)O

The target of assay [1] is T1, human cholecystokinin-2 receptor (CCK-2R) (Homo sapiens, UniProt P32239).
T1 construct: host or cells: 1321-N1 cells (plasma membranes prepared by Evotec AG Hamburg)
T1 sequence (P32239 1-447): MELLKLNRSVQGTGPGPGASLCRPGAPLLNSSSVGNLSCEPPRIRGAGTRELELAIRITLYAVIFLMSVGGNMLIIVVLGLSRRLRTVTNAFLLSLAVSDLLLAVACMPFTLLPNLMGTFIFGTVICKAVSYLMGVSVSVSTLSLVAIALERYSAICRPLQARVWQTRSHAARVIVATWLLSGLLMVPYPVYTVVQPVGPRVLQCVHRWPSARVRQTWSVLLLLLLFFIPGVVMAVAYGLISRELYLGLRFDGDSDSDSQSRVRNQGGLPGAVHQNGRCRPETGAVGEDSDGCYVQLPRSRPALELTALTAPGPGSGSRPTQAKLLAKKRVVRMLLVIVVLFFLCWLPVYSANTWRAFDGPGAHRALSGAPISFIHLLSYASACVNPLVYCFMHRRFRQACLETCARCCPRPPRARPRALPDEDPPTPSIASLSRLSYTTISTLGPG
Kind of assay: In vitro receptor binding to CCK-2R, SPA displacement of [125I]-CCK-8s from plasma membranes. (In a radioligand displacement assay an active substance lowers the binding of a labelled ligand.)

Assay [2] addresses T2, human cholecystokinin-1 receptor (CCK-1R) (Homo sapiens, UniProt P32238).
T2 construct: host or cells: 1321-N1 cells
T2 sequence (P32238 1-428): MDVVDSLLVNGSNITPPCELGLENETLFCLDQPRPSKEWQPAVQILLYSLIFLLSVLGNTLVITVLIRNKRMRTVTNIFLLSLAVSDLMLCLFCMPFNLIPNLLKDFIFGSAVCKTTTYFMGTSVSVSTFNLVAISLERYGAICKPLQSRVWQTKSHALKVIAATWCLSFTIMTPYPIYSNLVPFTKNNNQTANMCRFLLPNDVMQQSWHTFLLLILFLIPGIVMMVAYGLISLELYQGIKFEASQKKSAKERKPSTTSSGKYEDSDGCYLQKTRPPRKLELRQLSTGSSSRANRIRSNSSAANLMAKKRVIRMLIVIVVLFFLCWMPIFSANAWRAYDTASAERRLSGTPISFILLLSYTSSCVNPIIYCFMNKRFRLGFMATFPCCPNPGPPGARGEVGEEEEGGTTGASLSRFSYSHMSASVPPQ
Kind of assay: In vitro potency on CCK-1R, whole cell functional assay (IP1 accumulation, IP-One HTRF). Format: cell-based.

Assay [3] concerns the target T1, human cholecystokinin-2 receptor (CCK-2R). As to the kind of experiment: In vitro potency on CCK-2R, whole cell functional assay (IP1 accumulation, IP-One HTRF). The class given is cell-based. A general note: TR-FRET usually uses a lanthanide donor and a delayed reading to cut background.
[4] abbreviates: displacement of [125I]-CCK-8s, plasma membranes of 1321-N1 cells expressing CCK-2R, highest dose tested 1×10^7 pM, read-out: IC50 (CCK-2R).
[5] abbreviates: 1321-N1 cells stably expressing CCK-1R, IP1 accumulation, average of min. three replicates, read-out: EC50 (CCK-1R).
The mark [6] stands for this setting: 1321-N1 cells stably expressing CCK-2R, IP1 accumulation, highest dose tested 1×10^6 pM, read-out: EC50 (CCK-2R).

By IC50 is commonly meant the concentration needed to halve the response being measured. Broadly, the EC50 is the concentration giving half of the maximal effect. Regarding `CCCC[C@H](NC(=O)[C@H](Cc1c[nH]c2ccccc12)NC(=O)CNC(=O)[C@@H]1CCCN1C(=O)[C@H](Cc1ccc(OS(=O)(=O)O)cc1)NC(=O)[C@@H](N)CC(=O)O)C(=O)N(C)[C@H](CC(=O)O)C(=O)N(C)[C@@H](Cc1ccccc1)C(N)=O` [Example 69, Asp-sTyr-Pro-Gly-Trp-Nle-DMeAsp-MePhe-amide] (H-D[sY]PGW[Nle][dNMeD][NMeF]-NH2), the IC50 in assay [1] (setting [4]) was > 10000 nM. Moreover, the EC50 in assay [2] (setting [5]) was 0.19 nM; in assay [3] (setting [6]) it was > 1000 nM.

Take `CCCC[C@H](NC(=O)[C@H](Cc1c[nH]c2ccccc12)NC(=O)CNC(=O)[C@H](C)NC(=O)[C@H](Cc1ccc(OS(=O)(=O)O)cc1)NC(=O)[C@@H](N)CC(=O)O)C(=O)N(C)[C@H](CC(=O)O)C(=O)N(C)[C@@H](Cc1ccccc1)C(N)=O` [Example 80, Asp-sTyr-Ala-Gly-Trp-Nle-DMeAsp-MePhe-amide] (H-D[sY]AGW[Nle][dNMeD][NMeF]-NH2): the IC50 in assay [1] (setting [4]) is > 10000 nM. Also, the EC50 is 0.16 nM in assay [2] (setting [5]) and > 1000 nM in assay [3] (setting [6]).

With `CC(C)C[C@H](NC(=O)[C@H](Cc1ccc(OS(=O)(=O)O)cc1)NC(=O)[C@@H](N)CC(=O)O)C(=O)NCC(=O)N[C@@H](Cc1c[nH]c2ccccc12)C(=O)N[C@@H](CC(C)C)C(=O)N(C)[C@H](CC(=O)O)C(=O)N(C)[C@@H](Cc1ccccc1)C(N)=O` [Example 64, Asp-sTyr-Leu-Gly-Trp-Leu-DMeAsp-MePhe-amide], the IC50 in assay [1] was > 10000 nM. In addition, the EC50 in assay [2] was 0.25 nM; in assay [3], > 1000 nM.

Turning to `CC(C)C[C@H](NC(=O)[C@H](Cc1ccc(OS(=O)(=O)O)cc1)NC(=O)[C@H](CC(=O)O)NC(=O)COCCOCCNC(=O)COCCOCCNC(=O)CC[C@H](NC(=O)CCCCCCCCCCCCCCCCC(=O)O)C(=O)O)C(=O)NCC(=O)N[C@@H](Cc1c[nH]c2ccccc12)C(=O)N[C@@H](CCS(C)(=O)=O)C(=O)N(C)[C@H](CC(=O)O)C(=O)N(C)[C@@H](Cc1ccccc1)C(N)=O` [Example 12, 2-[2-[2-[[2-[2-[2-[[(4S)-4-Carboxy-4-(17-carboxyheptadecanoylamino)butanoyl]amino]ethoxy]ethoxy]acetyl]amino]ethoxy]ethoxy]acetyl-Asp-sTyr-Leu-Gly-Trp-Met(O2)-DMeAsp-MePhe-amide] ({C18 diacid-γGlu-AEEA-AEEA}-D[sY]LGW[Met(O2)][dNMeD][NMeF]-NH2), the concentration for half-maximal inhibition (IC50) in assay [1] is > 10000 nM. Moreover, the EC50 is 0.14 nM in assay [2] (setting [5]) and > 1000 nM in assay [3] (setting [6]).

Consider `CCCC[C@H](NC(=O)[C@H](Cc1c[nH]c2ccccc12)NC(=O)CNC(=O)[C@H](CO)NC(=O)[C@H](Cc1ccc(OS(=O)(=O)O)cc1)NC(=O)[C@@H](N)CC(=O)O)C(=O)N(C)[C@H](CC(=O)O)C(=O)N(C)[C@@H](Cc1ccccc1)C(N)=O` [Example 79, Asp-sTyr-Ser-Gly-Trp-Nle-DMeAsp-MePhe-amide] (H-D[sY]SGW[Nle][dNMeD][NMeF]-NH2), for which the half-maximal effective concentration (EC50) in assay [2] (setting [5]) is 0.19 nM; in assay [3] (setting [6]), > 1000 nM.

For the compound `CCCC[C@H](NC(=O)[C@H](Cc1ccc(CS(=O)(=O)O)cc1)NC(=O)[C@@H](N)CC(=O)O)C(=O)NCC(=O)N[C@@H](Cc1c[nH]c2ccccc12)C(=O)N[C@@H](CCCC)C(=O)N(C)[C@H](CC(=O)O)C(=O)N(C)[C@@H](Cc1ccccc1)C(N)=O` [Example 55, Asp-Phe(4-sulfomethyl)-Nle-Gly-Trp-Nle-DMeAsp-MePhe-amide] (H-D[Phe(4-CH2SO3H)][Nle]GW[Nle][dNMeD][NMeF]-NH2), in assay [1] (setting [4]), the concentration for half-maximal inhibition (IC50) was > 10000 nM. The EC50 in assay [2] (setting [5]) was 0.25 nM; in assay [3] (setting [6]), > 1000 nM.

Consider `CCCC[C@H](NC(=O)[C@H](Cc1c[nH]c2ccccc12)NC(=O)CNC(=O)[C@H](CC(C)C)NC(=O)[C@H](Cc1ccc(OS(=O)(=O)O)cc1)NC(=O)[C@@H](N)CCC(=O)O)C(=O)N(C)[C@H](CC(=O)O)C(=O)N(C)[C@@H](Cc1ccccc1)C(N)=O` [Example 77, Glu-sTyr-Leu-Gly-Trp-Nle-DMeAsp-MePhe-amide] (H-E[sY]LGW[Nle][dNMeD][NMeF]-NH2), for which the IC50 in assay [1] (setting [4]) was > 10000 nM. For the same compound, the EC50 in assay [2] (setting [5]) turned out to be 0.21 nM; in assay [3] (setting [6]), 920 nM.

With `CCCC[C@H](NC(=O)[C@H](Cc1c[nH]c2ccccc12)NC(=O)CNC(=O)[C@H](CC(C)C)NC(=O)[C@H](Cc1ccc(OS(=O)(=O)O)cc1)NC(=O)[C@@H](N)CC(=O)O)C(=O)N(C)[C@H](CC(=O)O)C(=O)N[C@@H](Cc1ccccc1)C(N)=O` [Example 58, Asp-sTyr-Leu-Gly-Trp-Nle-DMeAsp-Phe-amide], in assay [1] (setting [4]), the IC50 was > 10000 nM. Moreover, the EC50 was 0.21 nM in assay [2] (setting [5]) and > 1000 nM in assay [3] (setting [6]).

As to `CCCC[C@H](NC(=O)[C@H](Cc1c[nH]c2ccccc12)NC(=O)CNC(=O)[C@H](CCCNC(=N)N)NC(=O)[C@H](Cc1ccc(OS(=O)(=O)O)cc1)NC(=O)[C@H](CC(=O)O)NC(=O)COCCOCCNC(=O)COCCOCCNC(=O)CC[C@H](NC(=O)CCCCCCCCCCCCCCCCC(=O)O)C(=O)O)C(=O)N(C)[C@H](CC(=O)O)C(=O)N(C)[C@@H](Cc1ccccc1)C(N)=O` [Example 17, 2-[2-[2-[[2-[2-[2-[[(4S)-4-Carboxy-4-(17-carboxyheptadecanoylamino)butanoyl]amino]ethoxy]ethoxy]acetyl]amino]ethoxy]ethoxy]acetyl-Asp-sTyr-Arg-Gly-Trp-Nle-DMeAsp-MePhe-amide] ({C18 diacid-γGlu-AEEA-AEEA}-D[sY]RGW[Nle][dNMeD][NMeF]-NH2), in assay [1] (setting [4]), the IC50 was found to be 880 nM. Further, the results for the EC50 in assay [2] (setting [5]) and in assay [3] (setting [6]) were 0.21 nM and 270 nM, respectively.
